In patent US20260201008A1, “SECRETIN-DERIVED GLP1R SELECTIVE AGONISTS” (GUBRA A/S, priority 2023, published 2026):
Square brackets hold non-standard residues; d marks the D form. Peptide text beside a SMILES is read from it. Aib = CC(C)(N)C(=O)O

Tests used:
[1] = biological target: GLP1R (Homo sapiens, UniProt P43220); assay: hGLP1R potency, cAMP accumulation in CHO-K1 cells stably overexpressing hGLP1R; format: cell-based; design: host or cells: CHO-K1; settings: Table 4, position X12 variants of GUB06-046; for Selectivity: SCTR EC50/GLP1R EC50 ratio; for EC50: read-out: pEC50 hGLPR1 (converted)
Text: (§1) Crude library peptides are screened in 10-fold serial dilutions of 5 concentrations, n=1 time. Tip change is done for the first two serial dilutions. Compound starting concentration (top) will be adjusted throughout the study if needed.
(§2) Purified peptides are screened in 3-fold serial dilutions of 11 concentrations, n=2 times. Tip change is done for all serial dilutions. Compound starting concentration (top) will be adjusted throughout the study. If the top concentration is adjusted or a 5-fold difference in calculated EC50 values is observed, n is increased by 1. EC50 values were calculated by nonlinear regression using sigmoid concentration-response with variable slope.
(§3) A CHO-K1 cell line stably overexpressing the hGLP1R was obtained from Euroscreen (FAST-0145L), expanded, aliquoted and frozen. An aliquot was thawed and plated in DPBS with 0.05% casein and 0.5 mM IBMX as 2000 cells/well in a 384-well format. The cells were then immediately stimulated for 30 min at room temperature with graded doses of test compound using human GLP-1(7-36) (synthesized at Gubra) as a positive control. cAMP accumulation was measured using a Cisbio assay for Gs coupled receptors (cat. no. 62AM4PEC), where the assay reagents were added as per the manufacturer's instructions and time-resolved fluorescence energy transfer recorded after one hour on a CLARIOstar (BMG Labtech) plate reader.

[2] = biological target: SCTR (Homo sapiens, UniProt P47872); assay: hSCTR potency, cAMP accumulation in CHO-K1 cells stably overexpressing hSCTR; format: cell-based; design: alternatively Euroscreen ES-712-AF; FAST-0161L; host or cells: CHO-K1; settings: Table 4, position X12 variants of GUB06-046; read-out: pEC50 hSCTR (converted)
Text: as §1, §2
as §3, with “Frozen division arrested CHO-K1 cells stably overexpressing the hSCTR were obtained from PerkinElmer (ES-712-AF). Alternatively, a CHO-K1” for “A CHO-K1”, “the hSCTR” for “the hGLP1R”, “Euroscreen (FAST-0161L),” for “Euroscreen (FAST-0145L),”, “human secretin” for “human GLP-1(7-36)”

Sequence of GLP1R (P43220 24-463): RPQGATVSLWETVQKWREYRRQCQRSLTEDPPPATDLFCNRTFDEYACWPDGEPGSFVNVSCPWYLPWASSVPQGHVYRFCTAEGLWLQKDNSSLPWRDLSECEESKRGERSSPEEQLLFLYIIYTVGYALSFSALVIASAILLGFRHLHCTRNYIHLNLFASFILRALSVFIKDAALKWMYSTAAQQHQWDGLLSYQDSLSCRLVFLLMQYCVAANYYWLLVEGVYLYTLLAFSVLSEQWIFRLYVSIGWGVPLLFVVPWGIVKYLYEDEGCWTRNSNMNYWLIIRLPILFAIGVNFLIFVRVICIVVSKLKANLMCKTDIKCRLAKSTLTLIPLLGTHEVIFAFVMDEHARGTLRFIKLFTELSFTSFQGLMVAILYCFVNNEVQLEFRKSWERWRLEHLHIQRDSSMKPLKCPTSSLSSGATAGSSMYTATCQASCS
Sequence of SCTR (P47872 23-440): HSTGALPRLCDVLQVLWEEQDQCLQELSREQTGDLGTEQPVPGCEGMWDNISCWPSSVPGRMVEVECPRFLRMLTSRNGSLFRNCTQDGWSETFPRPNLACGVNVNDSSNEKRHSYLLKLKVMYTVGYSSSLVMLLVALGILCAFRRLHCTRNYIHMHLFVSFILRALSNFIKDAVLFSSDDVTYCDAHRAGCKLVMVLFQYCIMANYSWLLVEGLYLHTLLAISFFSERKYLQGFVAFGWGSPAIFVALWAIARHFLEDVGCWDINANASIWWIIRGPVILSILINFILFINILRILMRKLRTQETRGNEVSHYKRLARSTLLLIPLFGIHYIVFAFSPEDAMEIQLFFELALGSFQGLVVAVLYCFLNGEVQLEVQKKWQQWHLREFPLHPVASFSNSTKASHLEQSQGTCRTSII

Selectivity [1] | EC50 [1] [nM] | EC50 [2] [nM] | Structure (SMILES)
328 | 0.0251 | 7.94 | CC[C@H](C)[C@H](NC(=O)[C@H](Cc1ccccc1)NC(=O)[C@H](CCCNC(=N)N)NC(=O)[C@H](CCC(N)=O)NC(=O)[C@H](CC(C)C)NC(=O)[C@H](C)NC(=O)[C@H](C)NC(=O)CNC(=O)[C@H](CCC(=O)O)NC(=O)[C@H](CC(C)C)NC(=O)[C@H](CC(C)C)NC(=O)[C@H](Cc1ccccc1)NC(=O)[C@H](CO)NC(=O)[C@H](CC(C)C)NC(=O)[C@H](CC(=O)O)NC(=O)[C@H](CO)NC(=O)[C@@H](NC(=O)[C@H](Cc1ccccc1)NC(=O)[C@@H](NC(=O)CNC(=O)[C@H](CCC(=O)O)NC(=O)C(C)(C)NC(=O)[C@@H](N)Cc1c[nH]cn1)[C@@H](C)O)[C@@H](C)O)C(=O)N[C@@H](CCC(N)=O)C(=O)N[C@@H](Cc1c[nH]c2ccccc12)C(=O)N[C@@H](CC(C)C)C(=O)N[C@H](C(N)=O)C(C)C [compound 225] (H-H[Aib]EGTFTSDLSFLLEGAALQRFIQWLV-NH2)
53 | 0.0158 | 0.794 | CC[C@H](C)[C@H](NC(=O)[C@H](Cc1ccccc1)NC(=O)[C@H](CCCNC(=N)N)NC(=O)[C@H](CCC(N)=O)NC(=O)[C@H](CC(C)C)NC(=O)[C@H](C)NC(=O)[C@H](C)NC(=O)CNC(=O)[C@H](CCC(=O)O)NC(=O)[C@H](CC(C)C)NC(=O)[C@H](CC(C)C)NC(=O)[C@H](Cc1c[nH]c2ccccc12)NC(=O)[C@H](CO)NC(=O)[C@H](CC(C)C)NC(=O)[C@H](CC(=O)O)NC(=O)[C@H](CO)NC(=O)[C@@H](NC(=O)[C@H](Cc1ccccc1)NC(=O)[C@@H](NC(=O)CNC(=O)[C@H](CCC(=O)O)NC(=O)C(C)(C)NC(=O)[C@@H](N)Cc1c[nH]cn1)[C@@H](C)O)[C@@H](C)O)C(=O)N[C@@H](CCC(N)=O)C(=O)N[C@@H](Cc1c[nH]c2ccccc12)C(=O)N[C@@H](CC(C)C)C(=O)N[C@H](C(N)=O)C(C)C [compound 228] (H-H[Aib]EGTFTSDLSWLLEGAALQRFIQWLV-NH2)

The remaining lines, values behind:

Structure (SMILES) | Selectivity [1] | EC50 [1] [nM] | EC50 [2] [nM]
CC[C@H](C)[C@H](NC(=O)[C@H](Cc1ccccc1)NC(=O)[C@H](CCCNC(=N)N)NC(=O)[C@H](CCC(N)=O)NC(=O)[C@H](CC(C)C)NC(=O)[C@H](C)NC(=O)[C@H](C)NC(=O)CNC(=O)[C@H](CCC(=O)O)NC(=O)[C@H](CC(C)C)NC(=O)[C@H](CC(C)C)NC(=O)C(C)(C)NC(=O)[C@H](CO)NC(=O)[C@H](CC(C)C)NC(=O)[C@H](CC(=O)O)NC(=O)[C@H](CO)NC(=O)[C@@H](NC(=O)[C@H](Cc1ccccc1)NC(=O)[C@@H](NC(=O)CNC(=O)[C@H](CCC(=O)O)NC(=O)C(C)(C)NC(=O)[C@@H](N)Cc1c[nH]cn1)[C@@H](C)O)[C@@H](C)O)C(=O)N[C@@H](CCC(N)=O)C(=O)N[C@@H](Cc1c[nH]c2ccccc12)C(=O)N[C@@H](CC(C)C)C(=O)N[C@H](C(N)=O)C(C)C [compound 223] (H-H[Aib]EGTFTSDLS[Aib]LLEGAALQRFIQWLV-NH2) | 78 | 0.0631 | 5.01
CC[C@H](C)[C@H](NC(=O)[C@H](Cc1ccccc1)NC(=O)[C@H](CCCNC(=N)N)NC(=O)[C@H](CCC(N)=O)NC(=O)[C@H](CC(C)C)NC(=O)[C@H](C)NC(=O)[C@H](C)NC(=O)CNC(=O)[C@H](CCC(=O)O)NC(=O)[C@H](CC(C)C)NC(=O)[C@H](CC(C)C)NC(=O)[C@H](CCC(=O)O)NC(=O)[C@H](CO)NC(=O)[C@H](CC(C)C)NC(=O)[C@H](CC(=O)O)NC(=O)[C@H](CO)NC(=O)[C@@H](NC(=O)[C@H](Cc1ccccc1)NC(=O)[C@@H](NC(=O)CNC(=O)[C@H](CCC(=O)O)NC(=O)C(C)(C)NC(=O)[C@@H](N)Cc1c[nH]cn1)[C@@H](C)O)[C@@H](C)O)C(=O)N[C@@H](CCC(N)=O)C(=O)N[C@@H](Cc1c[nH]c2ccccc12)C(=O)N[C@@H](CC(C)C)C(=O)N[C@H](C(N)=O)C(C)C [compound 224] (H-H[Aib]EGTFTSDLSELLEGAALQRFIQWLV-NH2) | 120 | 0.0126 | 1.58
CC[C@H](C)[C@H](NC(=O)[C@H](Cc1ccccc1)NC(=O)[C@H](CCCNC(=N)N)NC(=O)[C@H](CCC(N)=O)NC(=O)[C@H](CC(C)C)NC(=O)[C@H](C)NC(=O)[C@H](C)NC(=O)CNC(=O)[C@H](CCC(=O)O)NC(=O)[C@H](CC(C)C)NC(=O)[C@H](CC(C)C)NC(=O)CNC(=O)[C@H](CO)NC(=O)[C@H](CC(C)C)NC(=O)[C@H](CC(=O)O)NC(=O)[C@H](CO)NC(=O)[C@@H](NC(=O)[C@H](Cc1ccccc1)NC(=O)[C@@H](NC(=O)CNC(=O)[C@H](CCC(=O)O)NC(=O)C(C)(C)NC(=O)[C@@H](N)Cc1c[nH]cn1)[C@@H](C)O)[C@@H](C)O)C(=O)N[C@@H](CCC(N)=O)C(=O)N[C@@H](Cc1c[nH]c2ccccc12)C(=O)N[C@@H](CC(C)C)C(=O)N[C@H](C(N)=O)C(C)C [compound 226] (H-H[Aib]EGTFTSDLSGLLEGAALQRFIQWLV-NH2) | 145 | 0.0316 | 5.01
CC[C@H](C)[C@H](NC(=O)[C@H](Cc1ccccc1)NC(=O)[C@H](CCCNC(=N)N)NC(=O)[C@H](CCC(N)=O)NC(=O)[C@H](CC(C)C)NC(=O)[C@H](C)NC(=O)[C@H](C)NC(=O)CNC(=O)[C@H](CCC(=O)O)NC(=O)[C@H](CC(C)C)NC(=O)[C@H](CC(C)C)NC(=O)[C@@H](NC(=O)[C@H](CO)NC(=O)[C@H](CC(C)C)NC(=O)[C@H](CC(=O)O)NC(=O)[C@H](CO)NC(=O)[C@@H](NC(=O)[C@H](Cc1ccccc1)NC(=O)[C@@H](NC(=O)CNC(=O)[C@H](CCC(=O)O)NC(=O)C(C)(C)NC(=O)[C@@H](N)Cc1c[nH]cn1)[C@@H](C)O)[C@@H](C)O)C(C)C)C(=O)N[C@@H](CCC(N)=O)C(=O)N[C@@H](Cc1c[nH]c2ccccc12)C(=O)N[C@@H](CC(C)C)C(=O)N[C@H](C(N)=O)C(C)C [compound 227] (H-H[Aib]EGTFTSDLSVLLEGAALQRFIQWLV-NH2) | 43 | 0.0316 | 1.26
CC[C@H](C)[C@H](NC(=O)[C@H](Cc1ccccc1)NC(=O)[C@H](CCCNC(=N)N)NC(=O)[C@H](CCC(N)=O)NC(=O)[C@H](CC(C)C)NC(=O)[C@H](C)NC(=O)[C@H](C)NC(=O)CNC(=O)[C@H](CCC(=O)O)NC(=O)[C@H](CC(C)C)NC(=O)[C@H](CC(C)C)NC(=O)[C@H](Cc1ccc(O)cc1)NC(=O)[C@H](CO)NC(=O)[C@H](CC(C)C)NC(=O)[C@H](CC(=O)O)NC(=O)[C@H](CO)NC(=O)[C@@H](NC(=O)[C@H](Cc1ccccc1)NC(=O)[C@@H](NC(=O)CNC(=O)[C@H](CCC(=O)O)NC(=O)C(C)(C)NC(=O)[C@@H](N)Cc1c[nH]cn1)[C@@H](C)O)[C@@H](C)O)C(=O)N[C@@H](CCC(N)=O)C(=O)N[C@@H](Cc1c[nH]c2ccccc12)C(=O)N[C@@H](CC(C)C)C(=O)N[C@H](C(N)=O)C(C)C [compound 229] (H-H[Aib]EGTFTSDLSYLLEGAALQRFIQWLV-NH2) | 699 | 0.0158 | 10
